Legend:
[1] = tested on: BT-474; experiment: In vitro cytotoxicity assay (MTT); type: cell-based, human; conditions: Homo sapiens, BT-474, 144 h, BT-474; 6 days incubation, MTT
Description: (§1) In vitro cytotoxicity of compounds of the disclosure was assessed on several cancerous human cell lines. Cells were plated in 96-well plates at an appropriate density depending on the cell line (between 1000 and 10 000 cells/well in 100µL of appropriate culture media) and incubated at 37°C for 24 hours. Serial dilutions of the tested compound previously dissolved in culture media (50µL) were added, and incubation was carried at 37°C out for 6 days. MTT (5mg/mL in PBS, 20µL, Sigma-Aldrich) was added into the wells, and incubation was continued for 1 to 4 hours at 37°C. Culture media was then carefully removed, and well content was homogeneously dissolved with acidified isopropanol. Absorbance values were measured on a microplate reader using a wavelength of 570 nm (with a reference wavelength of 690 nm). The IC50 concentration values compared to untreated control cells were determined using inhibition dose response curve fitting (GraphPad Prism 9). Exatecan mesylate (cat#HY-13631A) and CR8 (CAS# 294646-77-8; cat#HY-18340) were purchased from MedChemExpress (China).

[2] = tested on: MDA-MB-231; experiment: In vitro cytotoxicity assay (MTT); type: cell-based, human; conditions: Homo sapiens, MDA-MB-231, 144 h, 6 days incubation
Description: as §1

[3] = tested on: MDA-MB-453; experiment: In vitro cytotoxicity assay (MTT); type: cell-based, human; conditions: Homo sapiens, MDA-MB-453, 144 h, 6 days incubation
Description: as §1

[4] = tested on: NCI-N87; experiment: In vitro cytotoxicity assay (MTT); type: cell-based, human; conditions: Homo sapiens, NCI-N87, 144 h, 6 days incubation
Description: as §1

[5] = tested on: SKBR-3; experiment: In vitro cytotoxicity assay (MTT); type: cell-based, human; conditions: Homo sapiens, SK-BR-3, 144 h, 6 days incubation
Description: as §1

[6] = target: T1, MDR1 (Homo sapiens, UniProt P08183); experiment: MDR1 efflux substrate assay in MDCK-MDR1; type: in vitro ADME; conditions: for Papp A→B at 60 min, 5 µM / Papp B→A at 60 min, 5 µM / efflux ratio at 60 min, 5 µM: dog; for Papp A→B at 60 min, 5 µM / Papp B→A at 60 min, 5 µM: MDCK-MDR1, 5µM, pH 7.4; for Papp A→B at 60 min, 5 µM: read-out: Papp A (donor) to B (acceptor); for Papp B→A at 60 min, 5 µM: read-out: Papp B (acceptor) to A (donor); for efflux ratio at 60 min, 5 µM: MDCK-MDR1, pH 7.4, read-out: Efflux ratio B/A; for MDR1 efflux potential: in words
T1 construct: host or cells: MDCK-MDR1 (Preadyport)
T1 sequence (P08183 whole entry): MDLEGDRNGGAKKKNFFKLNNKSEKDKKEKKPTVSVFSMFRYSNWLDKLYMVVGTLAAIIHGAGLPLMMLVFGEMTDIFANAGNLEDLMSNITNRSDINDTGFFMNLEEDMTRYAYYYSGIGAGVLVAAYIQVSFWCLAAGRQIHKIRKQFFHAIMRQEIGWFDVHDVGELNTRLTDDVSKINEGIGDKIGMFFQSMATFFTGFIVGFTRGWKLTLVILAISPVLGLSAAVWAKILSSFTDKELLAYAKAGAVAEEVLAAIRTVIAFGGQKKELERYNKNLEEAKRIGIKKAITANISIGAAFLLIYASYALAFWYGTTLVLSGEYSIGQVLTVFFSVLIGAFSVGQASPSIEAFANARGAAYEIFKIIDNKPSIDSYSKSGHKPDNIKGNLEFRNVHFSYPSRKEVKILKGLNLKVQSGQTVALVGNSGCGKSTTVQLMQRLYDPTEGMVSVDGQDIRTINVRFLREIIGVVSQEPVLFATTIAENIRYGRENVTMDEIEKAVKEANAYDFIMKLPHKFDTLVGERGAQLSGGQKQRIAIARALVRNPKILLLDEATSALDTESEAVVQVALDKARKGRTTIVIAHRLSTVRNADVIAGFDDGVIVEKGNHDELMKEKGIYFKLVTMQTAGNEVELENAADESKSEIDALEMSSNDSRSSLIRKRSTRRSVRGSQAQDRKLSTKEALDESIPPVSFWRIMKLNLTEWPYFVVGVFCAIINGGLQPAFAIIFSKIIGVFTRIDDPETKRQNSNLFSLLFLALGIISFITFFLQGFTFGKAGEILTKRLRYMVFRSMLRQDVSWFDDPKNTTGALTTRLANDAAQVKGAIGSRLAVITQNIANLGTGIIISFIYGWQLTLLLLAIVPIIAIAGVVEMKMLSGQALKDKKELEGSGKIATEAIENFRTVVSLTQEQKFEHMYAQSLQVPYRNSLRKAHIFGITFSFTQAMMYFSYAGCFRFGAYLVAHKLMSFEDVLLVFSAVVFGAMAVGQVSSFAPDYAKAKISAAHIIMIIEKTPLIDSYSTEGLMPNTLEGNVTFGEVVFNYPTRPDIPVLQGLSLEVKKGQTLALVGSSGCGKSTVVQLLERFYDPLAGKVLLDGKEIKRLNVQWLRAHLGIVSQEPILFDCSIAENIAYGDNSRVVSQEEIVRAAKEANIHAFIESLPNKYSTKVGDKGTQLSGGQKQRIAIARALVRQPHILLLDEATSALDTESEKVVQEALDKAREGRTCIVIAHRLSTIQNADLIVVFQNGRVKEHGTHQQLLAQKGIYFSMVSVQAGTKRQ
Description: (§2) MDR1 and BCRP efflux substrate assays were conducted in MDCK-MDR1 and MDCK-BCRP in vitro models (Preadyport™, Solvo Biotech) at Symeres (Nederland). Compound of the invention (donor well concentration of 5µM) were incubated in cell monolayer 24-transwell Preadyport system, using Preadyport recommended pH 7.4 assay buffer (donor and receiver wells). After 60 min of incubation (no shaking), samples are collected and suspended into triple volume of 66% cold acetonitrile. Samples are stored at -20°C until thawed, centrifuged and analyzed by LC-MS. Quinidine was used a positive control for the MDR1 assay, and prazosin was used as a positive control for the BCRP assay. Exatecan was used as a control, known not to be an MDR1 substrate. Residual DMSO content from compounds stock solutions was below 1% (v/v). The assay was performed in duplicate. The quantification of test compounds in donor or receptor compartment is conducted using relative LC/MS peak areas (samples of initial incubation solutions are used as a single point calibrator), without any spiked standard samples. The data is used for estimating apparent permeability (Papp) and calculation of efflux ratio.

[7] = target: T2, BCRP (Homo sapiens, UniProt Q9UNQ0); experiment: BCRP efflux substrate assay in MDCK-BCRP; type: in vitro ADME; conditions: for efflux ratio at 60 min, 5 µM / Papp A→B at 60 min, 5 µM / Papp B→A at 60 min, 5 µM: dog, pH 7.4, MDCK-BCRP; for efflux ratio at 60 min, 5 µM: read-out: Efflux ratio B/A; for Papp A→B at 60 min, 5 µM: read-out: Papp A (donor) to B (acceptor); for Papp B→A at 60 min, 5 µM: read-out: Papp B (acceptor) to A (donor); for BCRP efflux potential: in words
T2 construct: host or cells: MDCK-BCRP (Preadyport)
T2 sequence (Q9UNQ0 1-655): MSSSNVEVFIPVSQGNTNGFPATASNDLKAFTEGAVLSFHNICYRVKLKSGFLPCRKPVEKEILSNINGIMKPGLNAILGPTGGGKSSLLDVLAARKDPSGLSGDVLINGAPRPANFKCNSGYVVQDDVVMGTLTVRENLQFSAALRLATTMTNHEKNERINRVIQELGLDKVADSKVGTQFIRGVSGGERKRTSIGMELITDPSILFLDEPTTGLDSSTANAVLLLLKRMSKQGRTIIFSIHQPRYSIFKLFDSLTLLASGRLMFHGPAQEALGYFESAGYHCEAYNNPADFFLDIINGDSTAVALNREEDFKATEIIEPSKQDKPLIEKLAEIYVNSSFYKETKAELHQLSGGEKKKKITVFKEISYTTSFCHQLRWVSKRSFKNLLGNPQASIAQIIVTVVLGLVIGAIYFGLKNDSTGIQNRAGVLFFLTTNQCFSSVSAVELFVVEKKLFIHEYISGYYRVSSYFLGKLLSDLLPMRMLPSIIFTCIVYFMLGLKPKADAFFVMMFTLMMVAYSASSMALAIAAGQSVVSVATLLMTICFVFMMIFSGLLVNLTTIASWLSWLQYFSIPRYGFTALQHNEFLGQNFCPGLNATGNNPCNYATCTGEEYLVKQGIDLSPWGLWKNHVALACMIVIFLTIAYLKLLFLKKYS
Description: as §2

[8] = in vitro; conditions: PAMPA, pH 7.4
Description: Stock solutions of compounds of the invention were prepared in dimethyl sulfoxide (DMSO) to a final concentration of 10 mM. Each stock solution was diluted to 50 µM in pH 7.4 Prisma HT buffer (pION) in the presence of 10% MeOH (v/v). 200 µL were added to each well of the donor plate in quintuplicate. […] The acceptor filter plate was carefully placed on top of the donor plate to form a "sandwich." The sandwich was incubated at 25°C for 5 h, at 300 rpm. UV-vis spectra of the solutions in the blank, reference, acceptor, and donor plates were measured using a Tecan Infinite 200 PRO M Nano Plus microplate reader.

[9] = tested on: JIMT-1; experiment: In vitro cytotoxicity assay (MTT); type: cell-based, human; conditions: Homo sapiens, 144 h, 6 days incubation
Description: as §1

[10] = tested on: KB-1; experiment: In vitro cytotoxicity assay (MTT); type: cell-based; conditions: Homo sapiens, KB16, 144 h, 6 days incubation
Description: as §1

[11] = tested on: BXPC3; experiment: In vitro cytotoxicity assay (MTT); type: cell-based; conditions: Homo sapiens, BXPC-3, 144 h, 6 days incubation
Description: as §1

[12] = tested on: HT-29; experiment: In vitro cytotoxicity assay (MTT); type: cell-based; conditions: Homo sapiens, 144 h, 6 days incubation
Description: as §1

[13] = tested on: MCF-7; experiment: In vitro cytotoxicity assay (MTT); type: cell-based; conditions: Homo sapiens, MCF7, 144 h, 6 days incubation
Description: as §1

Row | Compound | IC50 [1] | IC50 [2] | IC50 [3] | IC50 [4] | IC50 [5] | Papp A→B at 60 min, 5 µM [6] | Papp B→A at 60 min, 5 µM [6] | efflux ratio at 60 min, 5 µM [7] | Papp A→B at 60 min, 5 µM [7] | Papp B→A at 60 min, 5 µM [7] | Papp at 5 h, 50 µM [8] | IC50 [9] | IC50 [10] | efflux ratio at 60 min, 5 µM [6] | IC50 [11] | IC50 [12] | IC50 [13] | MDR1 efflux potential [6] | BCRP efflux potential [7]
1 | N[C@H]1CCC[C@@H](Nc2nc(NCc3ccc(-c4ccccn4)cc3)n3ncc(Br)c3n2)C1 [Compound 2670] | 5.77 nM | 2.67 nM | 9.19 nM | 2.53 nM | 0.72 nM | < 0.5 ×10⁻⁶ cm/s | 23.5 ×10⁻⁶ cm/s | 5.93 | 5.02 ×10⁻⁶ cm/s | 29.8 ×10⁻⁶ cm/s | 132 ×10⁻⁶ cm/s |  |  |  |  |  |  |  | 
2 | NCCCCNc1nc(NCc2ccc(-c3ccccn3)cc2)n2ncc(Br)c2n1 [Compound 2585] | 1.77 nM | 24.7 nM | 26.8 nM | 15.4 nM | 38.9 nM | < 3.4 ×10⁻⁶ cm/s | 34 ×10⁻⁶ cm/s | 27.9 | 1.75 ×10⁻⁶ cm/s | 49 ×10⁻⁶ cm/s | < 0.3 ×10⁻⁶ cm/s | 7.86 nM |  |  |  |  |  |  | 
3 | NCC1CCN(c2nc(NCc3ccc(-c4ccccn4)cc3)n3ncc(Br)c3n2)CC1 [Compound 2560] | 5.92 nM | 1.92 nM | 1.61 nM | 3.29 nM | 4.33 nM | < 0.7 ×10⁻⁶ cm/s | 26.6 ×10⁻⁶ cm/s | 4.94 | 7.53 ×10⁻⁶ cm/s | 37.2 ×10⁻⁶ cm/s | 135 ×10⁻⁶ cm/s | 0.6 nM |  |  |  |  |  |  | 
4 | N[C@H]1CCC[C@@H]1Nc1nc(NCc2ccc(-c3ccccn3)cc2)n2ncc(Br)c2n1 [Compound 2668] | 2.16 nM | 0.82 nM | 1.78 nM | 0.84 nM | 0.2 nM | 1.36 ×10⁻⁶ cm/s | 56.4 ×10⁻⁶ cm/s | 6.99 | 10.2 ×10⁻⁶ cm/s | 71 ×10⁻⁶ cm/s | 164 ×10⁻⁶ cm/s |  | 2.99 nM | 41.6 |  |  |  |  | 
5 | N[C@H]1CCCC[C@@H]1Nc1nc(NCc2ccc(-c3ccccn3)cc2)n2ncc(Br)c2n1 [Compound 2671] | 3.34 nM | 1.74 nM | 2.22 nM | 1.47 nM | 0.42 nM | 0.99 ×10⁻⁶ cm/s | 43.2 ×10⁻⁶ cm/s | 4.54 | 10.1 ×10⁻⁶ cm/s | 46 ×10⁻⁶ cm/s | 176 ×10⁻⁶ cm/s |  | 7.6 nM | 43.7 |  |  |  |  | 
6 | CC[C@@]1(O)C(=O)OCc2c1cc1n(c2=O)Cc2c-1nc1cc(F)c(C)c3c1c2[C@@H](N)CC3 [Exatecan, reference compound] |  |  |  |  |  | 2.28 ×10⁻⁶ cm/s | 16.7 ×10⁻⁶ cm/s | 12.3 | 1.43 ×10⁻⁶ cm/s | 17.6 ×10⁻⁶ cm/s | 58 ×10⁻⁶ cm/s |  |  | 7.31 |  |  |  |  | 
7 | Brc1cnn2c(NCc3ccc(-c4ccccn4)cc3)nc(NC[C@@H]3CCCN3)nc12 [Compound 2571] | 2.68 nM | 2.22 nM | 3.55 nM | 4.27 nM | 7.75 nM | 0.59 ×10⁻⁶ cm/s | 64.2 ×10⁻⁶ cm/s | 12.9 | 7.09 ×10⁻⁶ cm/s | 91.4 ×10⁻⁶ cm/s | 149 ×10⁻⁶ cm/s | 1.53 nM |  | 108 | 5.43 nM | 1.12 nM | 79.6 nM |  | 
8 | N[C@H]1CCN(c2nc(NCc3ccc(-c4ccccn4)cc3)n3ncc(Br)c3n2)C1 [Compound 2655] | 1.57 nM | 0.54 nM | 0.97 nM | 1.95 nM | 0.14 nM | 5.13 ×10⁻⁶ cm/s | 26.9 ×10⁻⁶ cm/s | 3.47 | 11.1 ×10⁻⁶ cm/s | 38.7 ×10⁻⁶ cm/s | 125 ×10⁻⁶ cm/s |  | 1.66 nM | 5.25 |  |  |  | low level | low level
9 | CNCCN(C)c1nc(NCc2ccc(-c3ccccn3)cc2)n2ncc(Br)c2n1 [Compound 2605] | 2.76 nM | 1.54 nM | 3.66 nM | 4.5 nM | 7.46 nM | 4.05 ×10⁻⁶ cm/s | 54.5 ×10⁻⁶ cm/s | 1.31 | 30.9 ×10⁻⁶ cm/s | 40.5 ×10⁻⁶ cm/s | 112 ×10⁻⁶ cm/s | 1.22 nM |  | 13.4 | 2.91 nM | 0.33 nM | 3.7 nM | low level | low level
